Assay results as given in US3992391A, “1,3-Disubstituted thiourea compounds and preparation thereof” (priority 1972, dated 1976).
Counter-ions that a name gives are not always drawn.

Assays:
[1] = Hypoxia test (rat), reduced pressure, survival time; type: in vivo, rats (wister-strain); details: reduced pressure 145 mmHg
Procedure: Male mice (dd-strain) and rats (wister-strain) were taken to a closed room which was filled with a gas mixture consisting of 1.5 % oxygen and 98.5 % nitrogen, or was conditioned in reduced atmospheric pressure (145 mmHg). In the other hand, mice and rats were given sodium cyanide (10 mg/kg, i.p.). These animals died after a few minutes in such conditions. 1-(3'-Pyridyl)-3-(2'-hydroxyethyl)thiourea HCl was given 1 hour before these hypoxia tests.
In the Tables data mean the increase percent of the survival time to that of control.

[2] = Hypoxia test (mouse), KCN, survival time; type: in vivo, male mice (dd-strain); details: KCN 10 mg/kg i.p.
[3] = tested on: cardiac carbohydrate, lactate and fat; experiment: Cardiac carbohydrate, lactate and fat under the influence of isoproterenol in an anoxic condition; type: in vivo, male rats of wister-strain; details: rats, 1.0 mg/kg i.v.
Procedure: Male rats of wister - strain served as experimental animals. Isoproterenol in a dose of 3.0 μg/kg was injected intravenously to the animals, and 5 minutes later, the rat was taken to a closed room which was filled with a mixture gas consisting of 5 % oxygen and 95 % nitrogen. After the rat was kept in the above mentioned gas chamber for 5 minutes, they were killed by cervical dislocation. The anoxic state of the heart was measured by the cardiac carbohydrate (glycogen, pyruvate), lactate and fat [non-esterifiedfatty acid (hereinafter, referred to as NEFA), triglyceride (hereinafter, referred to as TG)].

[4] = tested on: distribution of ^14 C - glucose to brain; experiment: Distribution of ^14 C - glucose(U) to brain; type: in vivo, mouse; details: for ^14 C-glucose, Brain / ^14 C-glucose, Brain/Plasma / ^14 C-glucose, Plasma: mouse, 300 mg/kg oral
Procedure: ^14 C - glucose(U) was given intravenously (1.0 μC/mouse), and the animals were killed by decapitation 10 minutes after ^14 C - glucose administration. 1-(3'-Pyridyl)-3-(2'-hydroxyethyl)thiourea HCl was given orally 300 mg/kg before ^14 C - glucose administration.

[5] = heart, 5 minutes before isoproterenol
[6] = heart, 10 minutes before isoproterenol
[7] = heart, 30 minutes before isoproterenol
[8] = heart, 60 minutes before isoproterenol

OCCNC(=S)Nc1cccnc1 [1-(3'-pyridyl)-3-(2'-hydroxyethyl)thiourea hydrochloride]
increase percent of the survival time to that of control ([1]; 30 mg/kg i.v.): 135% | increase percent of the survival time to that of control ([1]; 100 mg/kg s.c.): 132% | increase percent of the survival time to that of control ([2]; 30 mg/kg i.v.): 185% | increase percent of the survival time to that of control ([2]; 30 mg/kg p.o.): 42% | increase percent of the survival time to that of control ([2]; 100 mg/kg p.o.): 189% | increase percent of the survival time to that of control ([2]; 100 mg/kg s.c.): 254% | increase percent of the survival time to that of control ([2]; 300 mg/kg p.o.): 287% | effect on the increase in NEFA level ([3]; heart): antagonized | effect on the increase in lactate level ([3]; heart): antagonized | effect on the increase in pyruvate level ([3]; heart): antagonized | Glycogen [3, 5]: 5.68 ± 0.45 mg/g | Lactate [3, 5]: 123.2 ± 10.7 µg/g | NEFA [3, 5]: 4.26 ± 0.35 µM/g | Pyruvate [3, 5]: 38.4 ± 2.42 µg/g | TG [3, 5]: 2.15 ± 0.21 mg/g | Glycogen [3, 6]: 6.05 ± 0.51 mg/g | Lactate [3, 6]: 95.1 ± 8.2 µg/g | NEFA [3, 6]: 4.12 ± 0.29 µM/g | Pyruvate [3, 6]: 29.5 ± 3.15 µg/g | TG [3, 6]: 1.98 ± 0.13 mg/g | Glycogen [3, 7]: 6.97 ± 0.41 mg/g | Lactate [3, 7]: 92.5 ± 9.7 µg/g | NEFA [3, 7]: 3.87 ± 0.32 µM/g | Pyruvate [3, 7]: 25.2 ± 2.07 µg/g | TG [3, 7]: 1.87 ± 0.19 mg/g | Glycogen [3, 8]: 5.92 ± 0.62 mg/g | Lactate [3, 8]: 140.6 ± 12.3 µg/g | NEFA [3, 8]: 4.58 ± 0.36 µM/g | Pyruvate [3, 8]: 39.3 ± 2.76 µg/g | TG [3, 8]: 2.25 ± 0.18 mg/g | effect on the decrease in cardiac glycogen content [3]: antagonized | significance of the antagonizing effect ([3]; administered 10 - 30 minutes before isoproterenol): significantly | distribution of ^14 C - glucose to brain ([4]; 300 mg/kg orally, given 60 - 120 minutes before ^14 C - glucose): increased | ^14 C-glucose, Brain ([4]; 30 min before ^14 C-glucose): 88.90 ± 12.69 × 10^3 dpm/g | ^14 C-glucose, Brain/Plasma ([4]; 30 min before ^14 C-glucose): 2.52 ± 0.59 | ^14 C-glucose, Plasma ([4]; 30 min before ^14 C-glucose): 35.22 ± 2.36 × 10^3 dpm/ml | ^14 C-glucose, Brain ([4]; 60 min before ^14 C-glucose): 93.76 ± 5.33 × 10^3 dpm/g | ^14 C-glucose, Brain/Plasma ([4]; 60 min before ^14 C-glucose): 2.48 ± 0.44 | ^14 C-glucose, Plasma ([4]; 60 min before ^14 C-glucose): 37.88 ± 3.15 × 10^3 dpm/ml | ^14 C-glucose, Brain ([4]; 120 min before ^14 C-glucose): 96.80 ± 6.80 × 10^3 dpm/g | ^14 C-glucose, Brain/Plasma ([4]; 120 min before ^14 C-glucose): 2.69 ± 0.15 | ^14 C-glucose, Plasma ([4]; 120 min before ^14 C-glucose): 35.93 ± 0.95 × 10^3 dpm/ml
